Key:
Slug [1] = molecular target: T1, Slug (Xenopus laevis, UniProt Q91924); experiment: EMSA, inhibition of Slug DNA-binding in embryo lysates; assay type: biochemical; conditions: relative to Co(III)-Ebox at 1 μM
T1 construct: 5x myc; expressed in transfected cells; host or cells: Xenopus laevis embryos injected with in vitro transcribed mRNA; whole embryo lysate, stage 8 / blastula
T1 sequence (Q91924 1-266): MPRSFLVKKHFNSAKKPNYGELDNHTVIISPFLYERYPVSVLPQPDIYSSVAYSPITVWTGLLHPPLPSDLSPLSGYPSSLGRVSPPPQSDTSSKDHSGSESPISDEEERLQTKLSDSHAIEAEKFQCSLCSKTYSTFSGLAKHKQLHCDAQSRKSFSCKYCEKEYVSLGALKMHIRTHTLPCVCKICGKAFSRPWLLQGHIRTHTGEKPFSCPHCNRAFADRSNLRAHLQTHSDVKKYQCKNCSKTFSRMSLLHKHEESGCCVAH
Procedure: (§1) (A) Lysates of blastula stage embryos (lane 1) or embryos with overexpressed Slug protein (lanes 2-6) were incubated with increasing concentrations of Co(III)-Ebox of 0, 0.01, 0.1 and 1 μM for 15 min prior to challenge with a ^32P-labeled Ebox containing Slug DNA probe for 30 min. (B) Lysates of blastula stage embryos injected with Slug, Snail or Sip1 mRNA (lanes 1-9) or Slug, p105, MitF and Lef-1 mRNA (lanes 10-21) were incubated with 0 or 1 μM Co(III)-Ebox for 15 min prior to challenge with ^32P-labeled Slug probe for 30 min and analyzed by EMSA on a native gel. […] Samples were analyzed by EMSA on a native TBE/acrylamide gel.
(§2) Lysates of blastula stage embryos injected with Slug mRNA were incubated with increasing concentrations of Co(1II)-Schiff base of 0, 1.5, 5, 15, 50, 150 and 500 μM (lanes 2-8) for 15 min, then incubated with ^32P-labeled Slug probe for 30 min and visualized by EMSA. Lysates of embryos injected with Slug (lanes 10 and 11), p105 (lanes 13 and 14), MitF (lanes 16 and 17) or Lef-1 (lanes 19 and 20) mRNA were incubated with 0 or 150 μM Co(1II)-Schiff base for 15 min and labeled with ^32P-labeled Slug probe for 30 min. Uninjected embryos are presented in lanes 1, 9, 12, I5 and 18. Samples were separated by EMSA. […]

p105 = molecular target: T2, p105 (Homo sapiens, UniProt P19838); experiment: EMSA, inhibition of p105 DNA-binding in embryo lysates; assay type: biochemical, Xenopus laevis; conditions: high concentrations (150 μM per FIG. 4 legend)
T2 construct: 5x myc; expressed in transfected cells; host or cells: Xenopus laevis embryos injected with in vitro transcribed mRNA; whole embryo lysate
T2 sequence (P19838 1-968): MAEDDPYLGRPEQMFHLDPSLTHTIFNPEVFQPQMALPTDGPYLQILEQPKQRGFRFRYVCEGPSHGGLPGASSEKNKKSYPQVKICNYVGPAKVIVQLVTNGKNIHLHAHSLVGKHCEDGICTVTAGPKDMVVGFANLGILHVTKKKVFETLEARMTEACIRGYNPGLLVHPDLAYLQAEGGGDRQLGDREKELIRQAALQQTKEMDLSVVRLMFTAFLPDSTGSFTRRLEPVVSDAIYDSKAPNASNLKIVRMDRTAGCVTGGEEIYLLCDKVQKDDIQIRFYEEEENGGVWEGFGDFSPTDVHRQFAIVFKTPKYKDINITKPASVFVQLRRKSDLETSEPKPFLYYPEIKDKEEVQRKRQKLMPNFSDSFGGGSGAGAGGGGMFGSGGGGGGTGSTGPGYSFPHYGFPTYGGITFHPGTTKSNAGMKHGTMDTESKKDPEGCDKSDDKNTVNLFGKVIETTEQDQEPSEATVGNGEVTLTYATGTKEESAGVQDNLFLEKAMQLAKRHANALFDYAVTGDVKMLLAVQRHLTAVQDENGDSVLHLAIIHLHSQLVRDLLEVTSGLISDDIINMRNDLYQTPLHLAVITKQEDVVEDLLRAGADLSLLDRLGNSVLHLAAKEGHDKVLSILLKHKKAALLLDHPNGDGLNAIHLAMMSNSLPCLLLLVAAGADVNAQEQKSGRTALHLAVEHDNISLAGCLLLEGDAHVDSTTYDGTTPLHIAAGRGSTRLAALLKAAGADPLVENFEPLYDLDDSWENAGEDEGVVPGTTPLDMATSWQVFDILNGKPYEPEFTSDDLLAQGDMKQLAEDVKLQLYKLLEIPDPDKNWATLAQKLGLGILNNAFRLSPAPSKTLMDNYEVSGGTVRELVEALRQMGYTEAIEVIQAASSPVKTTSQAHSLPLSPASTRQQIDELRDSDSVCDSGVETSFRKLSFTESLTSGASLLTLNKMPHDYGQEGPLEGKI
Procedure: as §1, §2

Lef-1 = molecular target: T3, Lef-1 (Homo sapiens, UniProt Q9UJU2); experiment: EMSA, inhibition of Lef-1 DNA-binding in embryo lysates; assay type: biochemical, Xenopus laevis; conditions: high concentrations (150 μM per FIG. 4 legend)
T3 construct: 5x myc; expressed in transfected cells; host or cells: Xenopus laevis embryos injected with in vitro transcribed mRNA; whole embryo lysate
T3 sequence (Q9UJU2 whole entry, species assumed): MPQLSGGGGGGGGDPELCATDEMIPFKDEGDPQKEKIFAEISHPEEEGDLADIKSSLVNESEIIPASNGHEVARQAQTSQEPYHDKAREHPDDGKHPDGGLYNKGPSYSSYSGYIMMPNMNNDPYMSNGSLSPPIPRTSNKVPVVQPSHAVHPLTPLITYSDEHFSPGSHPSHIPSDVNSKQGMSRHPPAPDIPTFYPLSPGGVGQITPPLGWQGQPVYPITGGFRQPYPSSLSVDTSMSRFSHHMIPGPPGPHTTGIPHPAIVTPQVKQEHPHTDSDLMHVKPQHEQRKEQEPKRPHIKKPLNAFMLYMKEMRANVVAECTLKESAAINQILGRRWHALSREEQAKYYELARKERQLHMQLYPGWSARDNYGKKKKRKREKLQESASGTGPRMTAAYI
Procedure: as §1, §2

Slug [2] = molecular target: T1, Slug; experiment: In vivo assay: embryos injected with agent and Slug RNA, EMSA at blastula stage; conditions: 10 fold excess (10 μM) injected
Procedure: Pigmented and albino eggs were obtained and fertilized using standard protocol (Bellmeyer et al. (2003) Dev Cell 4(6):827-839, herein incorporated by reference in its entirety). All embryos are staged using the Niewenkoop-Faber method. Embryos were injected into one-cell at stage 1 in 0.4× modified ringer's (MR) solution with 3% Ficoll then transferred to 0.1×MR until harvesting. mRNA was transcribed in vitro using the SP6 Message Machine Kit (Ambion, Austin, Tex.). Concentrations of mRNA injected into one cell at the 2-cell stage range from 5-50 pg. XSip1 in the vector pCS2+ was obtained from A. Eisaki (Eisaki (2000) Biochem Biophys Res Commun 271(1):151-157, herein incorporated by reference in its entirety). cDNA was generated using PCR amplification and a high fidelity polymerase (Pfu; Roche, Indianapolis Ind.). cDNAs were cloned into a pCS2 variant that adds 5 myc tags to either the N- or C-terminus. All constructs were confirmed by sequencing using a ABI 3730 high-throughput DNA Sequencer.
For in vitro assays, whole embryo lysates were prepared by lysing 5 stage 8 embryos in 100 μL of lysis buffer (1×PBS, 1% NP-40 and Complete protease inhibitor cocktail tablets; Roche, Indianapolis, Ind.). […]

Snail = experiment: E-cadherin promoter firefly luciferase reporter (Snail transcriptional repression); assay type: cell-based; conditions: MDA-MB-231 cells, up to 250 nM
Procedure: MDA-MB-231 metastatic breast cancer cells express Snail1 in the nucleus. A firefly luciferase plasmid with the E-cadherin promoter region was added upstream of the transcriptional start site Snail (SEE FIG. 7A). Binding of Snail to the E-boxes thereby repress luciferase transcription and therefore luciferase activity.

[Co(III)(heptanoic acido)(acacen)(NH3)2]Cl [Co(III)-Schiff base]
Excess required to achieve inhibition of Slug comparable to Co(III)-Ebox at 1 μM (Slug [1]): 150 fold
Inhibition of p105 DNA-binding (p105): inhibited
Inhibition of Lef-1 DNA-binding (Lef-1): inhibited
Inhibition of Slug function (DNA-binding) after injection in vivo (Slug [2]): not inhibited
Luciferase activity of E-cadherin promoter construct (Snail transcriptional activity) (Snail): did not affect
